Reference: paper PMC9965125, “New NSAID Conjugates as Potent and Selective COX-2 Inhibitors: Synthesis, Molecular Modeling and Biological Investigation” (Molecules, 2023)
Where “and” joins values, the source holds several entries; their conditions need not be identical. Equal values may be shown once.

Experiments:
[1] = tested on: carrageenan induced paw edema; assay: carrageenan-induced rat paw edema; type: in vivo; details: for % Inhibition of Edema ± Standard Error / Mean Edema Thickness: 10 mg/kg indomethacin mol equivalent i.p.; for Mean Edema Thickness: ± standard error; for % Potency: % inhibition of edema thickness relative to indomethacin at 3 h
Protocol: Anti-inflammatory activity screening
The anti-inflammatory activity of the tested compounds was determined in-vivo by the acute carrageenan induced paw edema standard method in rats. Adult Wister rats of either sex (pregnant female animals were excluded) weighing 120–150 g were divided into 19 groups of 6 animals each. The tested compounds dissolved in DMSO, at a dose of 10 mg kg-1 (rat body […]
inflammation. The control group was given DMSO only. Paw edema was induced by subcutaneous injection of freshly prepared 1% solution of carrageenan in saline (0.9%, 0.1 ml per rat) into subplantar tissue of the right hind paw of rats. The thickness of the paw was measured (in mm) after successive time intervals (1, 2, 3, 4 and 24 h) and compared with the initial hind paw thickness of each rat for determining the edema thickness. Data were collected, checked, revised and analyzed (SPSS 16). Quantitative variables from normal distribution were expressed as means ± SE “standard error”. The anti-inflammatory activity was expressed as percentage inhibition of edema thickness in treated animals in comparison with the control group according to eqn. (1) […]
% Inhibition of edema= Vc-Vt x 100 … .. (1)
Where, Vc and Vt are the means of edema paw thickness for the control and tested compound treated animal groups, respectively.
The potency of the tested compounds was expressed as % inhibition of edema thickness […]
% Potency = % inhibition of edema for the tested compound treated group x 100 … . (2)

[2] = tested on: acetic acid-induced abdominal writhing; assay: acetic acid-induced abdominal writhing assay (peripheral analgesic); type: in vivo, mice; details: for % Inhibition/Protection / Writing Reflex ± SE: 10 mg/kg indomethacin mol equivalent i.p.; for Potency: % inhibition/protection compared to indomethacin; for Writing Reflex ± SE: number of writhing counted for 30 min
Protocol: Peripheral analgesic testing
Peripheral analgesic activity was measured by the standard acetic acid-induced writhing […]
One hour after intraperitoneally (i,p.) administration of 10 mg kg−1 (mice body weight) […]
distilled/sterile water by the aid of two drops of Tween 80, each mouse was injected with 0.1 ml of 1% acetic acid solution i.p. The control group animals were given sterile/distilled water only with few drops of Tween 80. Starting 5 min after the acetic acid injection, the number of muscular contractions in each mouse was counted for 30 min. A significant reduction in the number of writhing by any test compound as compared to control animals was considered as a positive analgesic response. Percentage protection was calculated according to equ. (3), where n stands for the average number of writhing in the control group and n' is the average number of writhing in the treated group. The % potency was calculated by equ. (4) (Table 2).
% Inhibition/protection = n−n′ x100 … . (3)

hot plate latency = assay: hot plate assay (central analgesic); type: in vivo, mice; details: for % Protection / Latency Period ± SE: 10 mg/kg indomethacin mol equivalent i.p.; for Latency Period ± SE: cutoff 15 sec; for Potency: at 120 min compared to indomethacin
Protocol: The % potency was calculated by equ. (4) (Table 2). […]
% Potency = % protection of the tested compound x 100 ……. (4) […]
Central analgesic (hot plate) testing
The standard hot plate technique was undertaken by in vivo standard hot plate test [ 1,2]. […]
by placing them on a hot plate maintained at 55 ± 1 °C, 30 min. […]
suspended in sterile/distilled water by the ai d of two drops of Tween 80, and recording the reaction time in seconds for forepaw licking or jumping. The control group animals were given sterile/distilled water only with few drops of Tween 80. The maximum cutoff time was chosen as 15 sec. to prevent tissue damage. Response latencies were measured 30, 60, 90 and 120 min. after the application. The % protection was calculated by equ. ( 5) where, T1, T0 are the latency time mean of the tested compound and control group, respectively (Table 3).

gastric mucosa = details: both, albino, mouse, in vivo, 3 days; for % Incidence of Ulcer Divided by 10 / Average Severity of Ulcer / Average of Ulcer Number / Number of Animals with Ulcer: po, 10 mg/kg
Protocol: The ulcerogenic liability was determined in albino mice obeying the standard method.
Animals of either sex (pregnant females were excluded) weighing 20 –25 g were divided into 8 groups of 6 animals each. The animals fasted 18 h before drug administration.
80 administered orally for three successive days to fasted animals at a dose of 10 mg kg-1 (animal […]
The control group animals were given water only with few drops of Tween 80. The animals were sacrificed by cervical dislocation and the stomach was removed, opened along the greater curvature and rinsed with saline. The gastric mucosa was examined with a magnifying lens (10x) for the presence of lesions and ero sions. The ulcer index was calculated (Table 4) and the degree of ulcerogenic effect was expressed in terms of.
1. The percentage incidence of ulcers divided by 10.
2. Average number of ulcers per stomach.
3. Average severity of ulcers.
The ulcer index is the value that resulted from the sum of the above three values. […]

mice = assay: toxicological bioassay; type: in vivo; details: five times the anti-inflammatory dose (50 mg/kg indomethacin mol equivalent); recorded 24 h post-administration
Protocol: Five times the anti-inflammatory dose was orally administrated. […]
5a, 5b, 5d, 5e) was determined utilizing the standard method in mice. Albino mice weighing 20–25 g were divided into 6 groups of 6 mice each. Administrations of the tested compounds dissolved in distilled water by the aid of few drops of Tween 80 were given intraperitoneally in 50 […]
inflammatory dosage). The control group was given water only with few drops of Tween 80. The toxic symptoms and mortality rates were recorded 24 h post -administration in each group.

[3] = tested on: LPS-stimulated RAW264.7 macrophages; assay: NO production of LPS-induced RAW264.7 (Griess method); type: cell-based; details: 40 μg/mL; LPS 10 ng/mL; LPS only 22 μM, baseline 12.8 μM
IL-6 mRNA = details: 40 μg/mL; in comparison to LPS-stimulated cells only
Protocol: (§1) For this purpose, the mRNA levels of IL-6, TNF-α, and iNOS were measured using real-time qPCR (RT-qPCR).
(§2) Treatment of LPS-stimulated RAW264.7 macrophages was done with 40 µg/mL of the isolated
(§3) Evaluation of inflammatory mRNA expression levels
(§4) Inflammatory mRNA expression levels were evaluated using RT-qPCR (Applied Biosystems, CA, USA). Total RNA was extracted by lysing RAW264.7 cells using Qiazol Lysis Reagent. The extracted RNA was used to synthesize cDNA using RevertAid First Strand cDNA synthesis kit according to manufacturer’s protocol. The cDNA was then added with forward and reverse
(§5) primers, nuclease free water and maxima SYBR green mix (Thermo Fisher Scientific, MA, USA).
(§6) The inflammation-related genes of mRNA expression levels are as follows: IL-6, TNF-α, and
(§7) iNOS. All expression was normalized to GAPDH (endogenous control) and relative fold mRNA
(§8) expression levels were calculated using the comparative 2 −ΔΔCT method. The PCR reaction consists
(§9) of initiation stage at 95 °C for 10 min, after that 40 PCR cycles of d enaturation stage for 15 s at 95
(§10) °C and annealing and extension for 1 min at 60 °C.

TNF-α mRNA = details: 40 μg/mL; in comparison to LPS-stimulated cells only
Protocol: as §1, §2, §3, §4, §5, §6, §7, §8, §9, §10

CC(C)Cc1ccc(C(C)C(=O)O)cc1 (centres unmarked) [Ibu, Ibuprofen, reference compound]
% Inhibition of Edema ± Standard Error ([1]; 1 h): 44.4 ± 2.5% | % Inhibition of Edema ± Standard Error ([1]; 2 h): 43.5 ± 2.9% | % Inhibition of Edema ± Standard Error ([1]; 3 h): 78.8 ± 0.9% | % Inhibition of Edema ± Standard Error ([1]; 4 h): 21.0 ± 1.1% | % Inhibition of Edema ± Standard Error ([1]; 24 h, 10 mg/kg): 11.2 ± 0.6% | % Inhibition of Edema ± Standard Error ([1]; 24 h, listed as ibuprofen, 10 mg/kg): 11.2% | Mean Edema Thickness ([1]; 24 h): 0.817 ± 0.07 mm | % Potency [1]: 97.2% | % Inhibition/Protection [2]: 58.5% | Potency [2]: 81.5% | Writing Reflex ± SE [2]: 16.6 ± 0.7 | % Protection (hot plate latency; after 30 min): 61.7% | Latency Period ± SE (hot plate latency; after 30 min): 10.80 ± 0.8 s | % Protection (hot plate latency; after 60 min): 51.3% | Latency Period ± SE (hot plate latency; after 60 min): 11.00 ± 1.3 s | % Protection (hot plate latency; after 90 min): 33.6% | Latency Period ± SE (hot plate latency; after 90 min): 11.90 ± 1.5 s | % Protection (hot plate latency; after 120 min): 54.3% | Latency Period ± SE (hot plate latency; after 120 min): 13.90 ± 2.2 s | Potency (hot plate latency): 96.1 | % Incidence of Ulcer Divided by 10 (gastric mucosa): 3.33 | Average Severity of Ulcer (gastric mucosa): 0.67 | Average of Ulcer Number (gastric mucosa): 0.33 | Number of Animals with Ulcer (gastric mucosa): 2/6

COc1ccc2c(c1)c(CC(=O)O)c(C)n2C(=O)c1ccc(Cl)cc1 [Indo, Indomethacin, reference compound]
% Inhibition of Edema ± Standard Error ([1]; 24 h, 10 mg/kg): 12.0 ± 2.1% | % Inhibition of Edema ± Standard Error ([1]; 24 h, listed as indomethacin, 10 mg/kg): 12.0% | % Potency [1]: 100% | % Inhibition/Protection [2]: 71.8% | Potency [2]: 100.0% | Potency ([2]; listed as indomethacin): 100% | Writing Reflex ± SE [2]: 11.3 ± 1.6 | % Protection (hot plate latency; after 30 min): 87.1% | Latency Period ± SE (hot plate latency; after 30 min): 12.50 ± 2.0 s | % Protection (hot plate latency; after 60 min): 80.9% | Latency Period ± SE (hot plate latency; after 60 min): 13.15 ± 1.6 s | % Protection (hot plate latency; after 90 min): 57.9% | Latency Period ± SE (hot plate latency; after 90 min): 14.07 ± 1.2 s | % Protection (hot plate latency; after 120 min): 56.5% | Latency Period ± SE (hot plate latency; after 120 min): 14.10 ± 1.9 s | Potency (hot plate latency): 100 | % Incidence of Ulcer Divided by 10 (gastric mucosa): 10 | Average Severity of Ulcer (gastric mucosa): 1.67 | Average of Ulcer Number (gastric mucosa): 2 | Number of Animals with Ulcer (gastric mucosa): 6/6

CC(C)Cc1ccc(C(C)C(=O)OCc2cn(-c3ccc(Cl)cc3)nn2)cc1 (centres unmarked) [Compound 5b, (1-(4-Chlorophenyl)-1H-1,2,3-triazol-4-yl)methyl 2-(4-isobutylphenyl)propanoate]
% Inhibition of Edema ± Standard Error ([1]; 1 h): 58.3 ± 0.7% | % Inhibition of Edema ± Standard Error ([1]; 2 h): 69.6 ± 2.1% | % Inhibition of Edema ± Standard Error ([1]; 3 h, 10 mg/kg): 94.5% and 94.5 ± 0.4% | Mean Edema Thickness ([1]; 3 h): 0.040 ± 0.01 mm | % Inhibition of Edema ± Standard Error ([1]; 4 h): 66.8 ± 1.6% | % Inhibition of Edema ± Standard Error ([1]; 24 h): 8.4 ± 1.2% | % Inhibition/Protection [2]: 87.5% | Writing Reflex ± SE [2]: 5.0 ± 0.9 | % Protection (hot plate latency; after 30 min): 84.1% | Latency Period ± SE (hot plate latency; after 30 min): 12.30 ± 1.6 s | % Protection (hot plate latency; after 60 min): 41.3% | Latency Period ± SE (hot plate latency; after 60 min): 10.27 ± 1.9 s | % Protection (hot plate latency; after 90 min): 25.0% | Latency Period ± SE (hot plate latency; after 90 min): 11.14 ± 1.5 s | % Protection (hot plate latency; after 120 min): 27.1% | Latency Period ± SE (hot plate latency; after 120 min): 11.45 ± 2.0 s | Ulcer Index (gastric mucosa): 0 | % Incidence of Ulcer Divided by 10 (gastric mucosa): 0 | Average Severity of Ulcer (gastric mucosa): 0 | Average of Ulcer Number (gastric mucosa): 0 | Number of Animals with Ulcer (gastric mucosa): 0 | toxic symptoms or mortality (mice): No toxic symptoms or mortality | LPS-stimulated NO production (nitrite) [3]: 4.88 ± 1 µM | reduction in IL-6 mRNA levels (IL-6 mRNA): 42% | reduction in TNF-α mRNA levels (TNF-α mRNA): 82%

COc1ccc2c(c1)c(CC(=O)OCc1cn(-c3ccc(C)cc3)nn1)c(C)n2C(=O)c1ccc(Cl)cc1 [Compound 8d, (1-(p-Tolyl)-1H-1,2,3-triazol-4-yl)methyl 2-(1-(4-chlorobenzoyl)-5-methoxy-2-methyl-1H-indol-3-yl)acetate]
% Inhibition of Edema ± Standard Error ([1]; 1 h): 0.00 ± 0.8% | % Inhibition of Edema ± Standard Error ([1]; 3 h): 0.00 ± 0.5% | % Inhibition of Edema ± Standard Error ([1]; 4 h): 0.00 ± 0.6% | % Inhibition of Edema ± Standard Error ([1]; 24 h): 0.00 ± 0.4% | % Inhibition/Protection [2]: 62.5% | Potency [2]: 87.0% | Writing Reflex ± SE [2]: 15.0 ± 1.6 | % Protection (hot plate latency; after 30 min): 97.8% | Latency Period ± SE (hot plate latency; after 30 min): 13.21 ± 2.5 s | % Protection (hot plate latency; after 60 min): 74.0% | Latency Period ± SE (hot plate latency; after 60 min): 12.65 ± 2.0 s | % Protection (hot plate latency; after 90 min): 50.1% | Latency Period ± SE (hot plate latency; after 90 min): 13.37 ± 1.6 s | % Protection (hot plate latency; after 120 min): 48.6% | Latency Period ± SE (hot plate latency; after 120 min): 13.39 ± 1.2 s | Potency (hot plate latency): 86.0

COc1ccc2c(c1)c(CC(=O)OCc1cn(-c3ccccc3OC)nn1)c(C)n2C(=O)c1ccc(Cl)cc1 [Compound 8e, (1-(2-Methoxyphenyl)-1H-1,2,3-triazol-4-yl)methyl 2-(1-(4-chlorobenzoyl)-5-methoxy-2-methyl-1H-indol-3-yl)acetate]
% Inhibition of Edema ± Standard Error ([1]; 1 h): 0.00 ± 0.2% | % Inhibition of Edema ± Standard Error ([1]; 2 h): 6.5 ± 1.0% | % Inhibition of Edema ± Standard Error ([1]; 4 h): 4.2 ± 1.9% | % Inhibition of Edema ± Standard Error ([1]; 24 h): 0.00 ± 0.3% | % Inhibition/Protection [2]: 80.8% | Potency [2]: 112.5% | Writing Reflex ± SE [2]: 7.7 ± 1.3 | % Protection (hot plate latency; after 30 min): 69.2% | Latency Period ± SE (hot plate latency; after 30 min): 11.30 ± 1.1 s | % Protection (hot plate latency; after 60 min): 82.0% | Latency Period ± SE (hot plate latency; after 60 min): 13.23 ± 1.6 s | % Protection (hot plate latency; after 90 min): 27.5% | Latency Period ± SE (hot plate latency; after 90 min): 11.36 ± 2.5 s | % Protection (hot plate latency; after 120 min): 28.9% | Latency Period ± SE (hot plate latency; after 120 min): 11.61 ± 2.2 s | Potency (hot plate latency): 51.2
